In paper PMC11483813, “Bombesin-Targeted Delivery of β-Carboline-Based Ir(III) and Ru(II) Photosensitizers for a Selective Photodynamic Therapy of Prostate Cancer” (Inorganic Chemistry, 2024):

Columns and labels:
[1] = pKa determination from emission intensity versus pH; assay type: physicochemical; conditions: H2O:DMSO (99:1), 10^–5 M, 25 °C
Description: Ir-H and Ru-H are susceptible to deprotonation in aqueous media due to the presence of the acidic −COOH group. In fact, the actual protonation state of these complexes at the different physiological pH values defines their global charge and correspondingly influences their solubility, their photophysical properties, and their cellular uptake.[45]−[47] Thus, the pKa values of Ir-H and Ru-H in their excited states were experimentally determined by monitoring the variations of their emission intensity at specific wavelengths versus different pH values and fitting the data (Iem,λ/pH) to a sigmoidal equation. In good agreement with similar complexes reported in the literature,[45],[46] there was a gradual decrease in the emission intensity of Ir-H and Ru-H with decreasing pH (Figures 4 and S50). […] These values can be considered as an acceptable approximation to the values of the respective ground states. Therefore, we concluded that Ir-H and Ru-H adopt their deprotonated zwitterionic forms in the whole range of physiological pHs. This means that Ir-H assumes a zwitterionic neutral form, while Ru-H adopts a zwitterionic monocationic structure. In both cases, there is charge separation, and as a result, we predict that the cellular uptake ability of these complexes could be reduced, in comparison to that of their relatives Ir-Me and Ru-Me.
Figure 4 pKa determination. […]

[2] = tested on: PC-3 cells; assay: Intracellular ROS generation (H2DCFDA, flow cytometry); assay type: cell-based, human; conditions: IC50,light 4 h, blue light 1 h
Method: The photocytotoxic effects of the complexes and metallopeptides were further elucidated by evaluating their ability to photogenerate ROS at the cellular level. PC-3 cells were treated with the compounds at the respective IC50,light and irradiated with blue light. Subsequently, ROS generation was measured using the 2′,7′-dichlorodihydrofluorescein diacetate (H2DCFDA) probe, which diffuses into cells and is oxidized by ROS to produce a green fluorescent signal. […] Nevertheless, to ascertain the potential contributions of other ROS to the photocytotoxic activity, the capacity of the compounds to undergo type I PDT processes, resulting in the production of superoxide anions (O2^•–), was examined using a specific fluorescent probe that emits an orange signal upon interaction with this radical. […]
Figure 9 Intracellular ROS generation. […] The elevation of general ROS (A) and superoxide anion (B) levels was determined with specific probes by flow cytometry. […]
PC-3 cells were seeded at a density of 100000 cells per well in 12-well plates and incubated overnight. […] Cells were subsequently harvested by trypsinization, and the median fluorescence emission of 10000 cells was measured using a Novocyte flow cytometer equipped with NovoExpress software. The fluorescence fold increase relative to untreated control cells was calculated. […]

| Structure (SMILES) | pKa (excited state) [1] | ROS levels, fold increase versus control cells [2] |
| --- | --- | --- |
| Cn1c2ccccc2c2ccnc(-c3ccc(/C=C/C(=O)O)cn3)c21.[Cl-].[Ir+3].[c-]1ccccc1-c1ccccn1.[c-]1ccccc1-c1ccccn1 [Ir-H] | 3.81 |  |
| COC(=O)/C=C/c1ccc(-c2nccc3c4ccccc4n(C)c23)nc1.[Cl-].[Ir+3].[c-]1ccccc1-c1ccccn1.[c-]1ccccc1-c1ccccn1 [Ir-Me] |  | 4.5 fold |
| Cn1c2ccccc2c2ccnc(-c3ccc(/C=C/C(=O)O)cn3)c21.[Cl-].[Cl-].[Ru+2].c1ccc(-c2ccccn2)nc1.c1ccc(-c2ccccn2)nc1 [Ru-H] | 4.51 |  |
